The subject of data set [1] is human gingival squamous carcinoma cells (OECM1). Briefly: Cell viability/proliferation assay (WST-1) in OECM1 cells. The class given is cell-based. The note with it: for OECM1 viability / proliferation: 0.1, 1, 2 and 5 μg/ml, normalized to control. From the text:
(§1) In specific examples, colorimetric assays can be used to assess cellular viability and proliferation of cell cultures, such as MTT, WST-1, and resazurin assays. See, e.g., Präbst et al., Methods Mol Biol. 2017:1601:1-17.
(§2) Various cell lines were exposed to PGDHC, including human gingival squamous carcinoma cells (OECM1), tongue squamous carcinoma cells (SCC4, SCC9), and healthy human gingival epithelial control cells (OBA9) in vitro.
(§3) To elucidate the effects of C16:0 and dh-C16:0 on oral squamous cell carcinoma, the ability of exogenous C16:0 and dh-C16:0 to modulate proliferation and ceramidase expression in OECM1 cells was determined. […] In contrast, no effect of C16:0 on ASAH1 and ACER2 mRNA expressions.
(§4) LCL521 is a dose-dependent acid ceramidase inhibitor. Comparison of the concentration-dependent effects of an acid ceramidase inhibitor, LCL521 (MedChemExpress®), and the bacterial-isolated a15:0-15:0PE phospholipid on the viability of healthy human epithelial, OBA9, and oral squamous cancer cell lines, OECM1 and SCC9, in vitro was evaluated. […] (FIG. 15A). […] (FIG. 15B).

Data set [2] deals with ASAH1. The data set can be described thus: ASAH1 (acid ceramidase) mRNA expression in OECM1 cells. It is filed as cell-based, human. The note with it: for expression of ASAH1 in OECM1 cells: 1 μg/ml, compared to sham control.
From the text: (§5) Exemplary ceramidase genes, the expression of which can be measured to determine upregulation, include but are not limited to ASAH1, ACER2, and ACER3. A determination of ceramidase gene expression can be made according to methods available to one of skill in the art. For example, Yamada et al., J Cell Mol Med. 2023 May;27(9):1290-1295 and Kyriakou et al., Int. J. Mol. Sci. 2020, 21(5):1607 describes measuring the mRNA levels of ceramidases by RNA extraction and RT-PCR.
(§6) To test this hypothesis, it was first determined whether artificially elevated intracellular concentration of ceramide species affect the expression of acid/ASAH1, neutral/ASAH2, and alkaline1-3/ACER1-3 ceramidases in oral squamous cell carcinoma cells using C6-ceramide. Applicant previously reported that C6-ceramide serves as a positive control for PGDHC-mediated inflammation (Kanzaki et al., Biochim Biophys Acta Mol Cell Biol Lipids. 2017 May;1862(5):452-462) and promotes the intracellular accumulation of ceramide in cancer cells. See, e.g., Zhang et al., Front Plant Sci. 2020 Feb. 26:11:145, Zhai et al., Biochem Biophys Res Commun. 2015 December;468(1-2):274-80, Wilhelm et al., Cancers (Basel). 2021 Jan. 13;13(2):270, and Chapman et al., Biochem Pharmacol. 2010 Aug. 1;80(3):308-15.
(§7) Next, the effect of PGDHC on ceramidase gene expression was determined. OECM1 and SCC4 cells were exposed to 0.1 or 1 μg/ml of PGDHC. The mRNA levels of ceramidases were then measured following PGDHC exposure. PGDHC inhibited the expression of ASAH1 and ACER2 mRNAs in OECM1 (FIG. 8). […] See, e.g., Vijayan et al., J Adv Res. 2023 Dec. 21:S2090-1232(23)00403-4, Doan et al., Oncotarget. 2017 Nov. 7;8(68):112662-112674., Lai et al., Sci Rep. 2021 May 27;11(1):11221, Liu et al., Cancer Sci. 2020 July;111(7):2259-2274., and Liu et al., Front Genet. 2023 Mar. 1:14:1148437.
as §3
(§8) We evaluated the effect of a15:0-i15:0 phosphoethanolamine phospholipid (FIG. 1D), isolated from the gut bacteria Akkermansia muciniphila on OSCC cells.

Another data set relates to ACER2. Briefly: ACER2 mRNA expression in OECM1 cells. The note with it: 1 μg/ml, compared to sham control. It is filed as cell-based, human.
From the text: as §5, §6, §7, §3

The subject of another data set is ACER3. The data set can be described thus: ACER3 mRNA expression in OECM1 cells. The class given is cell-based, human. The note with it: 1 μg/ml, compared to sham control.
From the text: as §5
as §6, with “13;13(2):270, and Chapman et al., Biochem Pharmacol. 2010 Aug. 1;80(3):308-15.” left out
To elucidate the effects of C16:0 and dh-C16:0 on oral squamous cell carcinoma, the ability of exogenous C16:0 and dh-C16:0 to modulate proliferation and ceramidase expression in OECM1 cells was determined. […]

The test system of data set [3] is tongue squamous carcinoma cells (SCC9). Briefly: Cell viability/proliferation assay (WST-1) in SCC9 cells. The class given is cell-based, human.
From the text: as §1, §2, §4
Background: Formazan colour is commonly taken as a measure of viable cells.

Data set [4] concerns healthy human gingival epithelial control cells (OBA9). The data set can be described thus: Cell viability/proliferation assay (WST-1) in healthy OBA9 cells. It is filed as cell-based.
From the text: as §1, §2, §4

Data set [5] concerns ASAH1. Briefly: ASAH1 mRNA expression in SCC9 cells. It is filed as cell-based, human. The note with it: different concentrations of a15:0-i15:0PE.
From the text: as §8

The test system of another data set is acid ceramidase. Briefly: Acid ceramidase level by confocal microscopy in SCC9 cells. The class given is cell-based, human.
From the text: as §8

Another data set concerns SCC9 cells. The data set can be described thus: Untargeted metabolomic pathway analysis (LC/MS) in SCC9 cells. The note with it: 1 μg/ml for 6 h. The class given is cell-based, human. The source says: The plots in FIGS. 16A and 16B display the enriched pathways identified in the analysis, with their corresponding significance levels represented on the x-axis. The significance threshold (p<0.05) is denoted by the dashed line. […] Additionally, the color of the dots represents the enrichment, which indicates the extent to which the metabolites in the pathway were clustered amongst the compounds with the most positive fold-changes (positive enrichments), the most negative fold-changes (negative enrichments), or uniformly distributed across high and low fold-change compounds (enrichment values near 0.0). […] Polar and lipid metabolites were analyzed with hydrophilic interaction chromatography (HILIC/MS) and liquid chromatography (LC/MS), respectively. Mass spectrometry analysis was completed with a mass range of 67-1500 Da with 1 scan/sec and a mass resolution of 120,000 in both positive and negative ionization mode. The MS/MS mass-spectrometry data were acquired in a data-dependent iterative fashion with a 1.3 m/z isolation window. Based upon this metabolomic analysis, phosphoglycerol dihydroceramide (PGDHC) isolated from Porphyromonas gingivalis inhibits metabolomic pathways essential for cell survival in oral squamous cell carcinoma cells (OSCC). […]
SCC9 were exposed to a15:0-i15:0PE (1 μg/ml) for 6 h in vitro. […] The significance threshold (p<0.05) is denoted by the grey dashed line. […] Additionally, the color of the dots represents the enrichment, which indicates the extent to which the metabolites in the pathway were clustered amongst the compounds with the most positive fold-changes (positive enrichments), the most negative fold-changes (negative enrichments), or uniformly distributed across high and low fold-change compounds (enrichment values near 0.0).

In data set [6] the test system is human gingival squamous carcinoma cells (OECM1). The note with it: Yamada et al. 2023; cited from earlier work.
The subject of data set [7] is ASAH1. The note with it: Yamada et al. 2023; cited from earlier work.
Data set [8] has as its system ceramide and dihydroceramide in OECM1 cells. The note with it: Yamada et al. 2023; cited from earlier work.
The mark [9] stands for this setting: at concentrations lower than 1 μg/mL.

Entries after “also recorded” stand apart in the source; their conditions may differ.

For `CCCCCCCCCCCCC/C=C/[C@@H](O)[C@H](CO)NC(=O)CCCCC` [C6-ceramide], the “OECM1 viability / proliferation” value in [1] is “inhibited OECM1 viability in a concentration-dependent manner”. In addition, in the data set with ASAH1 [2], the “expression of ASAH1 in OECM1 cells” value is recorded as “inhibited expression”. The “expression of ACER2 in OECM1 cells” value in the data set on ACER2 is “inhibited expression”. Moreover, in the data set with ACER3, the “expression of ACER3 in OECM1 cells” value is “inhibited expression”.

Regarding `CCCCCCCCCCCCC/C=C/[C@@H](O)[C@H](CO)NC(=O)CCCCCCCCCCCCCCC` [C16:0, C16:0 ceramide], the “expression of ASAH1 in OECM1 cells” value in the data set on ASAH1 [2] is listed as “no effect”. Moreover, in the data set with ACER2, the “expression of ACER2 in OECM1 cells” value was “no effect”.

As for `CCCCCCCCCCCCCC(=O)N[C@H](COC(=O)CN(C)C)[C@H](OC(=O)CN(C)C)c1ccc([N+](=O)[O-])cc1` [LCL521, reference compound], the “inhibition of viability of OECM1” value in data set [1] (10 μM) was found to be 20%. Besides, in data set [3] (10 μM), the “inhibition of viability of SCC9” value amounted to 20%. Also, the “inhibition of viability of OBA9” value in [4] (10 μM) was “over 50%”.

Turning to `CC[C@H](C)CCCCCCCCCCC(=O)OC[C@H](COP(=O)(O)OCCN)OC(=O)CCCCCCCCCCCC(C)C` [a15:0-15:0PE, 1-(12S-methylmyristoyl)-2-(13-methylmyristoyl)-sn-glycero-3-phosphoethanolamine], the “viability of OECM1 cells” value in [1] (setting [9]) is “significantly inhibited”. Further, the “viability of SCC9 cells” value in data set [3] (setting [9]) is “significantly inhibited”. In data set [4] (concentrations of 0.1, 1.0 and 2.0 μM (FIG. 15B)), the “healthy OBA9 cell viability” value is recorded as “No significant effect”. In addition, the “expression patterns of ASAH1 mRNA in OECM1” value in the data set on ASAH1 [2] (different concentrations of a15:0-i15:0PE) was “dose-dependent decrease in expression”. The “expression patterns of ASAH1 mRNA in SCC9” value in the data set with ASAH1 [5] is “dose-dependent decrease in expression”. For the same compound, the “levels of acid ceramidase in SCC9 cells (confocal, corrected total cell fluorescence)” value in the data set with acid ceramidase is recorded as “decreased expression”. Further, in the data set on SCC9 cells, the “amino fatty acid metabolism in SCC9 cells” value is reported as “inhibits”; the “arginine and proline metabolism in SCC9 cells” value is “inhibits”; the “vitamin B6 metabolism in SCC9 cells” value was “inhibits”. In the data set on SCC9 cells (listed as a15:0-i15:0PE), the “amino fatty acid metabolism in SCC9 cells” value is given as “diminished accumulation”; the “arginine and proline metabolism in SCC9 cells” value was “diminished accumulation”; the “vitamin B6 metabolism in SCC9 cells” value is recorded as “diminished accumulation”.

Regarding `CCCCCCCCCCCCCCCC(=O)N[C@@H](CO)[C@H](O)CCCCCCCCCCCCCCC` [dh-C16:0, Dihydroceramide C16:0], the “OECM1 viability / proliferation” value in data set [1] is “significantly inhibited OECM1 cells proliferation in a concentration-dependent manner”. For the same compound, the “expression of ASAH1 in OECM1 cells” value in the data set on ASAH1 [2] is on record as “dramatically inhibits”. The “expression of ACER2 in OECM1 cells” value with ACER2 is “dramatically inhibits”. Also, the “expression of ACER3 in OECM1 cells” value with ACER3 is recorded as “dramatically inhibits”.

With “phosphoethanolamine dihydroceramide [PEDHC]”, the “proliferation of OECM1 cells” value in [6] was “inhibited the proliferation”. Also, the “ASAH1 (acid ceramidase) expression in OECM1 cells” value in the data set with ASAH1 [7] is “inhibition; also recorded: downregulation”. The “accumulation of antiproliferative ceramides in OECM1 cells” value in data set [8] is reported as “elevated accumulation”.

Source of the values: patent US20250312365A1, “METHODS FOR INHIBITION OF SQUAMOUS CARCINOMA CELLS USING CERAMIDE MODULATORS” (The Trustees of Indiana University, priority 2024, published 2025).
